Legend:
human topo IIα [1] = molecular target: T1, human topo IIα (Homo sapiens, UniProt P11388); assay: Human topo IIα-mediated cleavage assay; format: biochemical
T1 construct: purchased Inspiralis (Norwich, U.K.)
From the text: To determine whether compounds act as catalytic inhibitors, a cleavage assay was next performed for compounds 1 and 9.
We performed the assay in collaboration with Inspiralis (Norwich, U.K.).

Solubility observations = format: physicochemical; conditions: 500 μM; erratic readings
human topo IIα [2] = molecular target: T1, human topo IIα; assay: ATPase activity (ATP hydrolysis) assay, pyruvate kinase/lactate dehydrogenase coupled; format: biochemical
[3] = molecular target: T2, human topo IIα ATPase domain (Homo sapiens, UniProt P11388); assay: Microscale thermophoresis (MST) binding; conditions: truncated human topo IIα ATPase domain; three independent runs
T2 construct: the ATPase domain of human topo IIα with 1–453 amino acid residues; purchased Inspiralis

[4] = 500 μM (compound 1: solubility problems, erratic readings)

T1 sequence (P11388 whole entry): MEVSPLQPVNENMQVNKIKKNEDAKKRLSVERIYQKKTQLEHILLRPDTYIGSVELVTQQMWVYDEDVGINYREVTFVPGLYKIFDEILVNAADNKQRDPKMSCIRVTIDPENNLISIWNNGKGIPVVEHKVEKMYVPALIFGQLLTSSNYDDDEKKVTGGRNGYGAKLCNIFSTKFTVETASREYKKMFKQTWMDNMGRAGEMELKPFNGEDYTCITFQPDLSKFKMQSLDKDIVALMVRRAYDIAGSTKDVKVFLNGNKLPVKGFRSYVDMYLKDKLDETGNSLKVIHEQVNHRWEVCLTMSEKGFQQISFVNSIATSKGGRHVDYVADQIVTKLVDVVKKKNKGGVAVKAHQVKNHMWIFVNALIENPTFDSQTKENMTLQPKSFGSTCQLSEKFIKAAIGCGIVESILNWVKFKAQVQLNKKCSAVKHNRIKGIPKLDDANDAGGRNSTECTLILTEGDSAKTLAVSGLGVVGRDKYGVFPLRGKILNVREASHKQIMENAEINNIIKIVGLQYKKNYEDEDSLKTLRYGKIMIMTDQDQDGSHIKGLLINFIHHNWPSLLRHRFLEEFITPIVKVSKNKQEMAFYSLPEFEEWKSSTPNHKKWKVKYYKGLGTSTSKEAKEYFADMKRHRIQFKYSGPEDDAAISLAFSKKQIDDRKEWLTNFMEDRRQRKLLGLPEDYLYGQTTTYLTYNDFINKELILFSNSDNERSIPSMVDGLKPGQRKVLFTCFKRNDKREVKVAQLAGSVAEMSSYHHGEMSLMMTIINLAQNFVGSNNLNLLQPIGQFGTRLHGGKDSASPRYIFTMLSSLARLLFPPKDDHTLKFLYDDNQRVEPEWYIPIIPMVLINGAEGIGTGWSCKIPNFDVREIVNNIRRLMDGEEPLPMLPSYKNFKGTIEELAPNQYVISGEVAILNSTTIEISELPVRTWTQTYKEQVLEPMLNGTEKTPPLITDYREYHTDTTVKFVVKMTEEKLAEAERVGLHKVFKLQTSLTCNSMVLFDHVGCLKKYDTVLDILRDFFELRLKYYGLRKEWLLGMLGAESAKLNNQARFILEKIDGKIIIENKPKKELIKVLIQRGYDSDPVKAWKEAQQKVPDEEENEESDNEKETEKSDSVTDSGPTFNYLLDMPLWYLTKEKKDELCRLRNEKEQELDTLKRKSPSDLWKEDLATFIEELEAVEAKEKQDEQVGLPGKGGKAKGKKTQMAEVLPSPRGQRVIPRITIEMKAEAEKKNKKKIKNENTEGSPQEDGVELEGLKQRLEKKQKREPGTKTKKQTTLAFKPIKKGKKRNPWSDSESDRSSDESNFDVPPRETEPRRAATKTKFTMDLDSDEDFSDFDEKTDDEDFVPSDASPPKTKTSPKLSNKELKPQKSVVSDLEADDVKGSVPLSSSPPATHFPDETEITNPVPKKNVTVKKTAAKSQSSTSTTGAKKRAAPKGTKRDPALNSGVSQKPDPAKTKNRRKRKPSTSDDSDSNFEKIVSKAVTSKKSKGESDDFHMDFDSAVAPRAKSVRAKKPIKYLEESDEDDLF
T2 sequence (P11388 1-453): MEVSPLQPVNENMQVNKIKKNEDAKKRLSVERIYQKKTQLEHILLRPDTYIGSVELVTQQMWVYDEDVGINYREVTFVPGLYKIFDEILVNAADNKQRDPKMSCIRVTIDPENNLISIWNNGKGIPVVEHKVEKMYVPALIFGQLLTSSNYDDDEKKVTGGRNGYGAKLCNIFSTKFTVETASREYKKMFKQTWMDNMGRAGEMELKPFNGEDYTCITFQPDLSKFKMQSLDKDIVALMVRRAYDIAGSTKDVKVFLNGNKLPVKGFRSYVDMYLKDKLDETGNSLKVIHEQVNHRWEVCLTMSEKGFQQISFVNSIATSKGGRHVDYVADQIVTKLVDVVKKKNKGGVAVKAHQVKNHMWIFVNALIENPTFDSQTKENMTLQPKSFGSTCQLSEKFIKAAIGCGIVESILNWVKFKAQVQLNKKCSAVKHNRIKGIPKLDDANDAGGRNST

For `Cc1nc(N)sc1-c1csc(Nc2ccc(C(F)(F)F)cc2)n1` [Compound 1], the “% Linear DNA (first column)” value (human topo IIα [1]; 3.9 μM) was 8.05%, the “% Linear DNA (second column)” value (human topo IIα [1]; 3.9 μM) was 5.57% and the “% Linear DNA (first column)” value (human topo IIα [1]; 31.5 μM) was 6.32%. The “% Linear DNA (second column)” value (human topo IIα [1]; 31.5 μM) was 7.77%, the “% Linear DNA (first column)” value (human topo IIα [1]; 125 μM) was 3.02% and the “% Linear DNA (second column)” value (human topo IIα [1]; 125 μM) was 2.85%. The “% Linear DNA (first column)” value (human topo IIα [1]; 500 μM) was 2.45%, the “% Linear DNA (second column)” value (human topo IIα [1]; 500 μM) was 2.98% and the “linear DNA formation in cleavage assay (in words)” value (human topo IIα [1]; four concentrations) was “did not reveal a significant amount of linear DNA above the background level”. The “solubility in the ATPase assay” value (Solubility observations) was “solubility problems”, the “Percentage ATPase activity Run 1” value (human topo IIα [2]; 3.9 μM) was 92.25% and the “Percentage ATPase activity Run 2” value (human topo IIα [2]; 3.9 μM) was 88.37%. The “Percentage ATPase activity Run 1” value (human topo IIα [2]; 31.5 μM) was 96.12%, the “Percentage ATPase activity Run 2” value (human topo IIα [2]; 31.5 μM) was 94.57% and the “Percentage ATPase activity Run 1” value (human topo IIα [2]; 125 μM) was 24.81%. The “Percentage ATPase activity Run 2” value (human topo IIα [2]; 125 μM) was 16.28%, the “inhibition of topo IIα-mediated ATP hydrolysis (in words)” value (human topo IIα [2]; 125 μM) was “almost fully inhibited” and the “Percentage ATPase activity Run 1” value (human topo IIα [2]; [4]) was 65.12%. The “Percentage ATPase activity Run 2” value (human topo IIα [2]; [4]) was 36.43% and the Kd [3] was 50.6 ± 7.6 µM.

— paper PMC7469689, “Substituted 4,5′-Bithiazoles as Catalytic Inhibitors of Human DNA Topoisomerase IIα” (Journal of Chemical Information and Modeling, 2020)
